Converted amounts (≈) assume the structure as drawn.
Columns and labels:
Assay type in all cases: functional, Salmonella enterica subsp. enterica serovar Typhi
[1] = tested on: Salmonella enterica subsp. enterica; assay: Antimicrobial activity against multidrug-resistant Salmonella enterica Serovar Typhi isolate AG8 harboring DNA gyrase A S83F mutation by disk diffusion method
[2] = tested on: Salmonella enterica subsp. enterica; assay: Antimicrobial activity against multidrug-resistant Salmonella enterica Serovar Typhi isolate AG16 harboring DNA gyrase A S83F mutation by disk diffusion method
[3] = tested on: Salmonella enterica subsp. enterica; assay: Antimicrobial activity against multidrug-resistant Salmonella enterica Serovar Typhi isolate nar 45 harboring DNA gyrase A S83F mutation by disk diffusion method
[4] = tested on: Salmonella enterica subsp. enterica; assay: Antimicrobial activity against multidrug-resistant Salmonella enterica Serovar Typhi isolate AG17 harboring DNA gyrase A S83F mutation by disk diffusion method
[5] = tested on: Salmonella enterica subsp. enterica; assay: Antimicrobial activity against Salmonella enterica Serovar Typhi isolate nar 108 harboring DNA gyrase A S83F mutation by disk diffusion method in presence of plasmid mediated quinolone-resistant gene qnrA and qnrS
[6] = tested on: Salmonella enterica subsp. enterica; assay: Antimicrobial activity against Salmonella enterica Serovar Typhi isolate E86 harboring DNA gyrase A S83F mutation by disk diffusion method in presence of plasmid mediated quinolone-resistant gene qnrA and qnrS
[7] = tested on: Salmonella enterica subsp. enterica; assay: Antimicrobial activity against multidrug-resistant Salmonella enterica Serovar Typhi isolate nar 46 harboring DNA gyrase A D87G mutation by disk diffusion method
[8] = tested on: Salmonella enterica subsp. enterica; assay: Antimicrobial activity against multidrug-resistant Salmonella enterica Serovar Typhi isolate B111 harboring DNA gyrase A S83Y mutation by disk diffusion method in presence of plasmid mediated quinolone-resistant gene qnrA and qnrS
[9] = tested on: Salmonella enterica subsp. enterica; assay: Antimicrobial activity against Salmonella enterica Serovar Typhi isolate D43 harboring DNA gyrase A S83Y mutation by disk diffusion method in presence of plasmid mediated quinolone-resistant gene qnrA and qnrS
[10] = tested on: Salmonella enterica subsp. enterica; assay: Antimicrobial activity against multidrug-resistant Salmonella enterica Serovar Typhi isolate AG15 harboring DNA gyrase A S83F mutation by disk diffusion method
[11] = tested on: Salmonella enterica subsp. enterica; assay: Antimicrobial activity against multidrug-resistant Salmonella enterica Serovar Typhi isolate DT49 harboring DNA gyrase A S83F mutation by disk diffusion method
[12] = tested on: Salmonella enterica subsp. enterica; assay: Antimicrobial activity against multidrug-resistant Salmonella enterica Serovar Typhi isolate ipt 32 harboring DNA gyrase A S83F mutation by disk diffusion method
[13] = tested on: Salmonella enterica subsp. enterica; assay: Antimicrobial activity against multidrug-resistant Salmonella enterica Serovar Typhi isolate DT2 harboring DNA gyrase A S83F mutation by disk diffusion method in presence of plasmid mediated quinolone-resistant gene qnrA and qnrS
[14] = tested on: Salmonella enterica subsp. enterica; assay: Antimicrobial activity against Salmonella enterica Serovar Typhi isolate BL 21801 harboring DNA gyrase A S83F mutation by disk diffusion method in presence of plasmid mediated quinolone-resistant gene qnrA and qnrS
[15] = tested on: Salmonella enterica subsp. enterica; assay: Antimicrobial activity against Salmonella enterica Serovar Typhi isolate AG259 harboring DNA gyrase A S83F mutation by disk diffusion method in presence of plasmid mediated quinolone-resistant gene qnrA and qnrS
[16] = tested on: Salmonella enterica subsp. enterica; assay: Antimicrobial activity against Salmonella enterica Serovar Typhi isolate ipt 2 harboring DNA gyrase A D87G mutation by disk diffusion method in presence of plasmid mediated quinolone-resistant gene qnrA and qnrS
[17] = tested on: Salmonella enterica subsp. enterica; assay: Antimicrobial activity against multidrug-resistant Salmonella enterica Serovar Typhi isolate DT18 harboring DNA gyrase A S83F and D87G mutation by disk diffusion method
[18] = tested on: Salmonella enterica subsp. enterica; assay: Antimicrobial activity against multidrug-resistant Salmonella enterica Serovar Typhi isolate CT29 harboring DNA gyrase A S83F mutation by disk diffusion method in presence of plasmid mediated quinolone-resistant gene qnrA and qnrS
[19] = tested on: Salmonella enterica subsp. enterica; assay: Antimicrobial activity against Salmonella enterica Serovar Typhi isolate CT142 harboring DNA gyrase A S83F mutation by disk diffusion method in presence of plasmid mediated quinolone-resistant gene qnrA and qnrS
[20] = tested on: Salmonella enterica subsp. enterica; assay: Antimicrobial activity against multidrug-resistant Salmonella enterica Serovar Typhi isolate AG5 harboring DNA gyrase A S83F mutation by disk diffusion method
[21] = tested on: Salmonella enterica subsp. enterica; assay: Antimicrobial activity against multidrug-resistant Salmonella enterica Serovar Typhi isolate DT15 harboring DNA gyrase A S83F mutation by disk diffusion method
[22] = tested on: Salmonella enterica subsp. enterica; assay: Antimicrobial activity against multidrug-resistant Salmonella enterica Serovar Typhi isolate DT37 harboring DNA gyrase A S83F mutation by disk diffusion method
[23] = tested on: Salmonella enterica subsp. enterica; assay: Antimicrobial activity against multidrug-resistant Salmonella enterica Serovar Typhi isolate nar 50 harboring DNA gyrase A S83F mutation by disk diffusion method
[24] = tested on: Salmonella enterica subsp. enterica; assay: Antimicrobial activity against multidrug-resistant Salmonella enterica Serovar Typhi isolate DT9 harboring DNA gyrase A S83F mutation by disk diffusion method
[25] = tested on: Salmonella enterica subsp. enterica; assay: Antimicrobial activity against Salmonella enterica Serovar Typhi isolate AG258 harboring DNA gyrase A S83F mutation by disk diffusion method in presence of plasmid mediated quinolone-resistant gene qnrA and qnrS
[26] = tested on: Salmonella enterica subsp. enterica; assay: Antimicrobial activity against multidrug-resistant Salmonella enterica Serovar Typhi isolate nar 107 harboring DNA gyrase A S83F mutation by disk diffusion method in presence of plasmid mediated quinolone-resistant gene qnrA and qnrS
[27] = tested on: Salmonella enterica subsp. enterica; assay: Antimicrobial activity against multidrug-resistant Salmonella enterica Serovar Typhi isolate DT3 harboring DNA gyrase A S83F mutation by disk diffusion method in presence of plasmid mediated quinolone-resistant gene qnrA and qnrS
[28] = tested on: Salmonella enterica subsp. enterica; assay: Antimicrobial activity against multidrug-resistant Salmonella enterica Serovar Typhi isolate HTD 798 harboring DNA gyrase A S83F mutation by disk diffusion method
[29] = tested on: Salmonella enterica subsp. enterica; assay: Antimicrobial activity against multidrug-resistant Salmonella enterica Serovar Typhi isolate BL 21095 harboring DNA gyrase A S83F mutation by disk diffusion method in presence of plasmid mediated quinolone-resistant gene qnrA and qnrS
[30] = tested on: Salmonella enterica subsp. enterica; assay: Antimicrobial activity against multidrug-resistant Salmonella enterica Serovar Typhi isolate AG176 harboring DNA gyrase A S83F mutation by disk diffusion method
[31] = tested on: Salmonella enterica subsp. enterica; assay: Antimicrobial activity against multidrug-resistant Salmonella enterica Serovar Typhi isolate AG152 harboring DNA gyrase A S83F and D87G mutation by disk diffusion method in presence of plasmid mediated quinolone-resistant gene qnrA and qnrS
[32] = tested on: Salmonella enterica subsp. enterica; assay: Antimicrobial activity against multidrug-resistant Salmonella enterica Serovar Typhi isolate AG6 harboring DNA gyrase A S83F mutation by disk diffusion method
[33] = tested on: Salmonella enterica subsp. enterica; assay: Antimicrobial activity against multidrug-resistant Salmonella enterica Serovar Typhi isolate AG168 harboring DNA gyrase A S83F mutation by disk diffusion method
[34] = tested on: Salmonella enterica subsp. enterica; assay: Antimicrobial activity against Salmonella enterica Serovar Typhi isolate CT145 harboring DNA gyrase A S83F mutation by disk diffusion method in presence of plasmid mediated quinolone-resistant gene qnrA and qnrS
[35] = tested on: Salmonella enterica subsp. enterica; assay: Antimicrobial activity against multidrug-resistant Salmonella enterica Serovar Typhi isolate DT54 harboring DNA gyrase A S83F mutation by disk diffusion method
[36] = tested on: Salmonella enterica subsp. enterica; assay: Antimicrobial activity against multidrug-resistant Salmonella enterica Serovar Typhi isolate DT42 harboring DNA gyrase A S83F mutation by disk diffusion method
[37] = tested on: Salmonella enterica subsp. enterica; assay: Antimicrobial activity against Salmonella enterica Serovar Typhi isolate AG182 harboring DNA gyrase A S83F mutation by disk diffusion method
[38] = tested on: Salmonella enterica subsp. enterica; assay: Antimicrobial activity against multidrug-resistant Salmonella enterica Serovar Typhi isolate A102 harboring DNA gyrase A S83Y mutation by disk diffusion method in presence of plasmid mediated quinolone-resistant gene qnrA and qnrS
[39] = tested on: Salmonella enterica subsp. enterica; assay: Antimicrobial activity against multidrug-resistant Salmonella enterica Serovar Typhi isolate nar 102 harboring DNA gyrase A S83F mutation by disk diffusion method in presence of plasmid mediated quinolone-resistant gene qnrA and qnrS
[40] = tested on: Salmonella enterica subsp. enterica; assay: Antimicrobial activity against Salmonella enterica Serovar Typhi isolate AG3 harboring DNA gyrase A S83F mutation by disk diffusion method

O=C(O)c1cn(C2CC2)c2cc(N3CCNCC3)c(F)cc2c1=O [CIPROFLOXACIN]
MIC [1]: 0.5 µg/mL (≈ 1.51 µM)
MIC [2]: 0.38 µg/mL (≈ 1.15 µM)
MIC [3]: 0.5 µg/mL (≈ 1.51 µM)
MIC [4]: 0.5 µg/mL (≈ 1.51 µM)
MIC [5]: 0.25 µg/mL
MIC [6]: 0.25 µg/mL
MIC [7]: 0.06 µg/mL (≈ 0.181 µM)
MIC [8]: 0.25 µg/mL
MIC [9]: 0.25 µg/mL
MIC [10]: 0.5 µg/mL (≈ 1.51 µM)
MIC [11]: 0.5 µg/mL (≈ 1.51 µM)
MIC [12]: 0.5 µg/mL (≈ 1.51 µM)
MIC [13]: 0.5 µg/mL
MIC [14]: 0.25 µg/mL
MIC [15]: 0.38 µg/mL
MIC [16]: 0.25 µg/mL
MIC [17]: 0.5 µg/mL (≈ 1.51 µM)
MIC [18]: 0.5 µg/mL
MIC [19]: 0.38 µg/mL
MIC [20]: 0.5 µg/mL (≈ 1.51 µM)
MIC [21]: 0.5 µg/mL (≈ 1.51 µM)
MIC [22]: 0.5 µg/mL (≈ 1.51 µM)
MIC [23]: 0.5 µg/mL (≈ 1.51 µM)
MIC [24]: 0.5 µg/mL (≈ 1.51 µM)
MIC [25]: 0.5 µg/mL
MIC [26]: 0.25 µg/mL
MIC [27]: 0.5 µg/mL
MIC [28]: 0.38 µg/mL (≈ 1.15 µM)
MIC [29]: 0.25 µg/mL
MIC [30]: 0.25 µg/mL (≈ 0.754 µM)
MIC [31]: 0.38 µg/mL
MIC [32]: 0.5 µg/mL (≈ 1.51 µM)
MIC [33]: 0.38 µg/mL (≈ 1.15 µM)
MIC [34]: 0.38 µg/mL
MIC [35]: 0.5 µg/mL (≈ 1.51 µM)
MIC [36]: 0.5 µg/mL (≈ 1.51 µM)
MIC [37]: 0.38 µg/mL (≈ 1.15 µM)
MIC [38]: 0.25 µg/mL
MIC [39]: 0.125 µg/mL

COc1c(N2CCNC(C)C2)c(F)cc2c(=O)c(C(=O)O)cn(C3CC3)c12 (centres undefined) [GATIFLOXACIN]
MIC [1]: 0.19 µg/mL (≈ 0.506 µM)
MIC [2]: 0.13 µg/mL (≈ 0.346 µM)
MIC [3]: 0.125 µg/mL (≈ 0.333 µM)
MIC [4]: 0.19 µg/mL (≈ 0.506 µM)
MIC [5]: 0.125 µg/mL
MIC [6]: 0.19 µg/mL
MIC [7]: 0.032 µg/mL (≈ 0.0852 µM)
MIC [8]: 0.19 µg/mL
MIC [9]: 0.19 µg/mL
MIC [10]: 0.13 µg/mL (≈ 0.346 µM)
MIC [11]: 0.125 µg/mL (≈ 0.333 µM)
MIC [12]: 0.125 µg/mL (≈ 0.333 µM)
MIC [13]: 0.125 µg/mL
MIC [14]: 0.19 µg/mL
MIC [15]: 0.13 µg/mL
MIC [16]: 0.125 µg/mL
MIC [17]: 0.25 µg/mL (≈ 0.666 µM)
MIC [18]: 0.094 µg/mL
MIC [19]: 0.125 µg/mL
MIC [40]: 0.25 µg/mL (≈ 0.666 µM)
MIC [20]: 0.25 µg/mL (≈ 0.666 µM)
MIC [21]: 0.094 µg/mL (≈ 0.25 µM)
MIC [22]: 0.125 µg/mL (≈ 0.333 µM)
MIC [23]: 0.094 µg/mL (≈ 0.25 µM)
MIC [24]: 0.25 µg/mL (≈ 0.666 µM)
MIC [25]: 0.19 µg/mL
MIC [26]: 0.125 µg/mL
MIC [27]: 0.094 µg/mL
MIC [28]: 0.13 µg/mL (≈ 0.346 µM)
MIC [29]: 0.19 µg/mL
MIC [30]: 0.09 µg/mL (≈ 0.24 µM)
MIC [31]: 0.25 µg/mL
MIC [32]: 0.19 µg/mL (≈ 0.506 µM)
MIC [33]: 0.13 µg/mL (≈ 0.346 µM)
MIC [34]: 0.094 µg/mL
MIC [35]: 0.125 µg/mL (≈ 0.333 µM)
MIC [36]: 0.125 µg/mL (≈ 0.333 µM)
MIC [37]: 0.13 µg/mL (≈ 0.346 µM)
MIC [38]: 0.19 µg/mL
MIC [39]: 0.094 µg/mL
